Assay results: patent US7300794B2, “Accelerated culture system for intestinal epithelial cell monolayers” (Supernus Pharmaceuticals, Inc., priority 2003, dated 2007)
Where two headings read alike, the source gives them in different places. Marks after values point to notes of the source that are not given here.

Tests used:
in vitro = settings: human; for Papp A→B: Caco-2, pH 7.4
Experimental: (§1) A method of using the medium also is part of the present invention. The following description is representative of how this would be done. Caco-2 cells (available from ATCC, Manassas, Va.) are resuspended in the HTB-10 medium and seeded on 3 μm polycarbonate 6-well Transwell® cell culture inserts (diameter 24.5 mm, Corning Costar) at a density of about 0.2×10^6 cells/cm^2. The seeding of the cells was performed on dry filters by placing 1.5 mL of the cell suspension on the apical side first, followed by addition of 2.5 mL of HTB-10 medium to the baso-lateral side.
(§2) To induce cell polarity, the volume of the medium on the apical side was decreased from 1.5 ml to 0.5 mL 48 hours post seeding, and the cells were fed primarily from the baso-lateral side. After the switch, the medium was changed every 24 hr for a total incubation period of 4 days.
(§3) The differentiation status and the monolayer integrity were monitored by measurements of transepithelial electrical resistance (TEER) and by determination of permeability of mannitol. […] The accelerated Caco-2 system was also evaluated through a validation process that was based on FDA guidelines for the Biopharmaceuticals Classification System (BCS). In that process, Caco-2 cell permeability coefficients were determined for 26 structurally diverse compounds that were then rank-ordered according to the fraction absorbed in humans. The transport studies were conducted as follows. The donor solution of the drug was placed on the apical side of a sample filter (1.5 mL) and the buffer solution (HBSS, pH 7.4) was placed on the baso-lateral side (2.5 mL). The plates were incubated at 37° C. on a shaker for 1-3 hr. Samples were collected at the designated time points and analyzed by either HPLC (uv)or radiometry (for radioactive compounds).

Caco-2 monolayer [1] = settings: cited from earlier work
[2] = fraction absorbed in humans, reported in the literature; cited from earlier work
Caco-2 monolayer [3] = experiment: in vitro
Experimental: as §1, §2, §3

[4] = BCS validation set, compounds rank-ordered according to fraction absorbed in humans

| Compound | Papp A→B (in vitro) [×10⁻⁶ cm/s] | Permeability class (Caco-2 monolayer [1]; [4]) | % fa in humans [2] | further results |
| --- | --- | --- | --- | --- |
| COCCc1ccc(OCC(O)CNC(C)C)cc1 (stereo not drawn) [Metoprolol] | 43.6 | High |  |  |
| CC(C)NCC(O)COc1cccc2ccccc12 (stereo not drawn) [Propranolol] | 19.3 | High |  |  |
| COc1ccc2cc([C@H](C)C(=O)O)ccc2c1 [Naproxen] |  |  | 94-100% |  |
| CC(C)(C)NCC(O)c1cc(O)cc(O)c1 (stereo not drawn) [Terbutalin] | 5.54 | Medium | 50-73% |  |
| Nc1nc2c(ncn2COCCO)c(=O)[nH]1 [Acyclovir] | 3.8 |  |  |  |
| Cn1c(=O)c2[nH]cnc2n(C)c1=O [Theophylline] |  |  | 96% |  |
| PEG-900 |  |  |  | [PM × 10^−6] cm/sec (Caco-2 monolayer [3]; Caco-2, pH 7.4): 0.7 +/− 0.1 × 10^−6 cm/sec |
| NS(=O)(=O)c1cc(C(=O)O)c(NCc2ccco2)cc1Cl [Furosemide] |  |  | 61% |  |
| CC(C(=O)O)c1cccc(C(=O)c2ccccc2)c1 (stereo not drawn) [Ketoprofen] | 48.6 | High |  |  |
| OC[C@@H](O)[C@@H](O)[C@H](O)[C@H](O)CO [Mannitol] | 3 | Low | 16-26% | Papp (in vitro; Caco-2): 0.7 to 6.3 ×10⁻⁶ cm/s |
| Cc1cc(=O)n(-c2ccccc2)n1C [Antipyrine] |  |  | 97-100% |  |
| CC(C)NCC(O)COc1ccc(CC(N)=O)cc1 (stereo not drawn) [Atenolol] |  |  | 50-54% |  |
| C[C@](N)(Cc1ccc(O)c(O)c1)C(=O)O [L-alpha-methyldopa] |  |  | 44** % | [PM × 10^−6] cm/sec (Caco-2 monolayer [3]; human, Caco-2, pH 7.4): 5.7 +/− 0.5 × 10^−6 cm/sec; Permeability class (Caco-2 monolayer [1]; Caco-2): Low |
| NC(N)=Nc1nc(CSCCC(N)=NS(N)(=O)=O)cs1 [Famotidine] | 1.36 | Low | 38% |  |
| NS(=O)(=O)c1cc2c(cc1Cl)NCNS2(=O)=O [Hydrochlorthiazide] | 6.9 |  | 65-72% |  |
| PEG-4000 |  |  |  | [PM × 10^−6] cm/sec (Caco-2 monolayer [3]; Caco-2, pH 7.4): 0.6 +/− 0.1 × 10^−6 cm/sec |
| CNC(=C[N+](=O)[O-])NCCSCc1ccc(CN(C)C)o1 [Ranitidine] | 2.2 | Medium | 50-61% |  |
| CN(Cc1cnc2nc(N)nc(N)c2n1)c1ccc(C(=O)N[C@@H](CCC(=O)O)C(=O)O)cc1 [Methotraxate] |  | Low | 20-100** % | [PM × 10^−6] cm/sec (Caco-2 monolayer [3]; 4-day Caco-2 in HTB-10, donor apical, HBSS pH 7.4, 37° C., 1-3 hr, donor concentration per Table 1): 4.2 +/− 0.7 × 10^−6 cm/sec |
| CC(C)n1c(/C=C/C(O)CC(O)CC(=O)O)c(-c2ccc(F)cc2)c2ccccc21 (stereo not drawn) [Fluvastatin] | 10.8 | High |  |  |
| CC1(C)S[C@@H]2[C@H](NC(=O)[C@H](N)c3ccc(O)cc3)C(=O)N2[C@H]1C(=O)O [Amoxicillin] | 0.02 | Low | 94** % |  |
| NC(=O)N1c2ccccc2C=Cc2ccccc21 [Carbamazepine] | 84.6 | High | 100% |  |
| PEG-400 |  |  |  | [PM × 10^−6] cm/sec (Caco-2 monolayer [3]; Caco-2, pH 7.4): 1.1 +/− 0.1 × 10^−6 cm/sec |
| C[C@]12CC[C@H]3[C@@H](CCC4=CC(=O)CC[C@@]43C)[C@@H]1CC[C@@H]2O [Testosterone] |  |  | 100% |  |
| CC(C)(C)NC[C@H](O)COc1nsnc1N1CCOCC1 [Timolol] | 25.4 | Medium | 72-75% |  |
